Assay results: ChEMBL document CHEMBL5346883, “Discovery and pharmacological characterization of a novel benzimidazole TRPV4 antagonist with cyanocyclobutyl moiety” (Eur J Med Chem, 2023)

Key:
[1] = Cytotoxicity against human HUVEC cells assessed as reduction in cell viability; assay type: toxicity, cell-based
[2] = target: T1, Transient receptor potential cation channel subfamily V member 4 (Homo sapiens, UniProt Q9HBA0); test: Antagonist activity at human TRPV4
[3] = target: T1, Transient receptor potential cation channel subfamily V member 4; test: Antagonist activity at TRPV4 (unknown origin) expressed in Flp-In-CHO cells assessed as inhibition of GSK1016790A induced Ca2+ influx by calcium imaging method; assay type: cell-based
[4] = tested on: Mus musculus; test: Antiinflammatory activity in LPS-induced acute lung injury mouse model assessed as BALF protein concentration at 1 mg/kg, ip; assay type: functional
[5] = tested on: Mus musculus; test: Antiinflammatory activity in LPS-induced acute lung injury mouse model assessed as pathological score at 1 mg/kg, ip by hematoxylin and eosin staining based analysis; assay type: functional

T1 sequence (Q9HBA0 whole entry): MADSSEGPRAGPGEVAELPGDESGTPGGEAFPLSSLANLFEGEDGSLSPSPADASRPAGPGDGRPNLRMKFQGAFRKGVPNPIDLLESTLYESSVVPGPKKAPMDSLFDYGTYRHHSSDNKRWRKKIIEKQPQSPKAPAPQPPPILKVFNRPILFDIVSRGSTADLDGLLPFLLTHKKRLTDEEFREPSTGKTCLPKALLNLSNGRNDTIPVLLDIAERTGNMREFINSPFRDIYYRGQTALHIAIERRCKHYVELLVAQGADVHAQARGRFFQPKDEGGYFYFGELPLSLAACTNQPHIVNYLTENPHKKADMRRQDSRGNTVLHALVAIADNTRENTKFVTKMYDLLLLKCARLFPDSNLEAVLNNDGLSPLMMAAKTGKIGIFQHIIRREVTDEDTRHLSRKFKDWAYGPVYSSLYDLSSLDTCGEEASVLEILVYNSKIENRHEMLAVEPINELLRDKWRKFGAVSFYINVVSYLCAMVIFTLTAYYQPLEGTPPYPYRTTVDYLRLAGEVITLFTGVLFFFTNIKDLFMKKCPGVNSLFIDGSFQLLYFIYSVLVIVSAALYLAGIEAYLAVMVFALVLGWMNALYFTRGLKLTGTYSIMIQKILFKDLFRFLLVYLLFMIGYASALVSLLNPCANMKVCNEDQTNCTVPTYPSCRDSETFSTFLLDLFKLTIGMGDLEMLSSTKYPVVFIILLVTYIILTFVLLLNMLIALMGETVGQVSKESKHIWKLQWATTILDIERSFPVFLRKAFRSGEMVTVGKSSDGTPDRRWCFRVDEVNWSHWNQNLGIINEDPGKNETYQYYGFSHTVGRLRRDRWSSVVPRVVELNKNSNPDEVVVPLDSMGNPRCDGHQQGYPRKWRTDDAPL

Row | SMILES | CC50 [1] [nM] | IC50 [2] [nM] | IC50 [3] [nM] | Activity [4] | Activity [5]
1 | CC(=O)Nc1c(Cl)c(Cl)cc2c1nc(NC(C)C)n2C1CCN(c2ccc(C3(C#N)CCCC3)cc2)CC1 | > 100000 |  |  |  | 
2 | CC(=O)Nc1c(Cl)c(Cl)cc2c1nc(NC(C)C)n2C1CCN(c2ccc(C3(C#N)CCC3)cc2)CC1 | > 100000 |  |  |  | 
3 | Cc1c(C(=O)Nc2cccc(C(F)(F)F)c2)cc(-c2ccccc2)n1CCCN1CCOCC1 |  | 203 | 73.6 | 1.5 | 5.4
4 | CC(C)C[C@H](NC(=O)c1cc2ccccc2s1)C(=O)N1CCN(C(=O)[C@H](CO)NS(=O)(=O)c2ccc(Cl)cc2Cl)CC1 |  |  | 122 |  | 
